This note sets out measurements from patent US7045528B2, “Benzofused heterozryl amide derivatives of thienopyridines useful as therapeutic agents, pharmaceutical compositions including the same, and methods for their use” (Agouron Pharmaceuticals, Inc., priority 2002, dated 2006).

In data set [1] the target is T1, unphosphorylated VEGF-R2Δ50 (FLVK) (Homo sapiens, UniProt P35968, DEL940-989/E990V).
T1 construct: VEGF-R2Δ50 contains residues 806–939 and 990–1171; made in house; host or cells: baculovirus/insect cell system
T1 sequence (P35968 with tags, fused parts or gaps DEL940-989/E990V limits assumed): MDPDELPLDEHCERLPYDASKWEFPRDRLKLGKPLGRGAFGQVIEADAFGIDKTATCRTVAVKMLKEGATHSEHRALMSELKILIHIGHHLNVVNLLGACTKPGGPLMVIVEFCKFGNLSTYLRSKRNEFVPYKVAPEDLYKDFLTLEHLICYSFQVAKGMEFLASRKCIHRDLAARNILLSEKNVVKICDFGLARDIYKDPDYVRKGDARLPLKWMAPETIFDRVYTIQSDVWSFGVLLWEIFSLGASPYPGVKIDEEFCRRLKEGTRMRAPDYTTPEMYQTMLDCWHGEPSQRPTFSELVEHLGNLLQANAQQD
Description: VEGF-R2 coupled spectrophotometric assay, unphosphorylated VEGF-R2Δ50 (FLVK). Type of data set: biochemical. Particulars: unphosphorylated VEGF-R2Δ50; for inhibition at 0.05 µM: 50 nM compound, read-out: FLVK (% inh @ 50 nM). In a few lines: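 Baculovirus-expressed human VEGF-R2Δ50 (kinase insert partly deleted, E990V), unphosphorylated form; ADP production coupled via PK/LDH to NADH oxidation, read at 340 nm. 20 mM poly(E4Y1), 3 mM ATP, 60 mM MgCl2, 2 mM MnCl2, 200 mM HEPES pH 7.5; 5–40 nM enzyme. Ki from Morrison tight-binding fit.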

The nature of a further data set: Mouse PK assay. Type of data set: in vivo. Particulars: 50 mg/kg, B6 female mice, plasma; for AUC / Cmax: mouse, po. How it is done: The pharmacokinetics (e.g., absorption and elimination) of drugs in mice were analyzed using the following experiment. Test compounds were formulated as a suspension in a 30:70 (PEG 400:acidified H2O) vehicle. This solution was administered orally (p.o.) and intraperitoneally (i.p.) at 50 mg/kg to two distinct groups (n=4) of B6 female mice. Blood samples were collected via an orbital bleed at time points: 0 hour (pre-dose), 0.5 hr, 1.0 hr, 2.0 hr, and 4.0 hr post dose. Plasma was obtained from each sample by centrifugation at 2500 rpm for 5 min. Test compound was extracted from the plasma by an organic protein precipitation method. For each time bleed, 50 μL of plasma was combined with 1.0 mL of acetonitrile, vortexed for 2 min. and then spun at 4000 rpm for 15 min. to precipitate the protein and extract out the test compound. Next, the acetonitrile supernatant (the extract containing test compound) was poured into new test tubes and evaporated on a hot plate (25° C.) under a steam of N2 gas. To each tube containing the dried test compound extract, 125 μL of mobile phase (60:40, 0.025 M NH4H2PO4+2.5 mL/L TEA:acetonitrile) was added. The test compound was resuspended in the mobile phase by vortexing and more protein was removed by centrifugation at 4000 rpm for 5 min. Each sample was poured into an HPLC vial for test compound analysis on an Hewlett Packard 1100 series HPLC with UV detection. From each sample, 95 μL was injected onto a Phenomenex-Prodigy reverse phase C-18, 150×3.2 mm column and eluted with a 45–50% acetonitrile gradient run over 10 min. Test-compound plasma concentrations (μg/mL) were determined by a comparison to standard curve (peak area vs. conc. μg/mL) using known concentrations of test compound extracted from plasma samples in the manner described above. Along with the standards and unknowns, three groups (n=4) of quality controls (0.25 μg/mL, 1.5 μg/mL, and 7.5 μg/mL) were run to insure the consistency of the analysis. […] The quantitated test samples were plotted for visual display using Kalidagraph software and their pharmacokinetic parameters were determined using WIN NONLIN software.

By Ki is commonly meant a dissociation constant, usually derived from enzyme kinetics or from competition with a known ligand. A higher Ki goes with a looser hold on the target. For orientation: AUC means concentration integrated over time. In general, Cmax refers to the peak of the concentration-time curve. For `CNC(=O)c1c(C)sc2cc(Oc3ccnc4cc(-c5nccn5C)sc34)ccc12` [Example 1, 2-methyl-6-(2-[1-methyl-1H-imidazol-2-yl]thieno[3,2-b]pyridin-7-yloxy)benzo[b]thiophene-3-carboxylic acid methylamide], in data set [1], the inhibition at 0.05 µM came out at 92% and the Ki was 1.02 nM. Moreover, in “Mouse PK assay”, the “mouse Cmin, po” value came out at 2793 ng/mL; the area under the curve (AUC) was found to be 183000 ng·h/mL; the Cmax worked out at 125000 ng/mL.
With `CNC(=O)c1c(C)sc2cc(Oc3ccnc4cc(C(=O)N5CCC[C@H]5COC)sc34)ccc12` [Example 2, 6-(2-[(S)-2-(methoxymethyl)pyrrolidine-1-carbonyl]thieno[3,2-b]pyridin-7-yloxy)-2-methylbenzo[b]thiophene-3-carboxylic acid methylamide], in data set [1], the inhibition at 0.05 µM was found to be 75% and the Ki stood at 4.14 nM.
`CNC(=O)c1c(C)sc2cc(Oc3ccnc4cc(C(=O)N5CCC[C@H]5CO)sc34)ccc12` [Example 3]: in data set [1], the inhibition at 0.05 µM is 59% and the affinity, expressed as Ki, was 0.811 nM. Also, in “Mouse PK assay”, the “mouse Cmin, po” value amounted to 66 ng/mL; the AUC stood at 2450 ng·h/mL; the peak level (Cmax) was 956 ng/mL.
`CNC(=O)c1c(C)sc2cc(Oc3ccnc4cc(C(=O)N5CC[C@@H](OC)C5)sc34)ccc12` [Example 4, 6-(2-[(R)-3-methoxypyrrolidine-1-carbonyl]thieno[3,2-b]pyridin-7-yloxy)-2-methylbenzo[b]thiophene-3-carboxylic acid methylamide]: in data set [1], the inhibition at 0.05 µM was 88% and the Ki was 2.58 nM. In the data set “Mouse PK assay”, the “mouse Cmin, po” value was found to be 200 ng/mL; the exposure (AUC) was 7670 ng·h/mL; the Cmax is 2340 ng/mL.
As for `CNC(=O)c1c(C)sc2cc(Oc3ccnc4cc(C(=O)N5CC[C@@H](O)C5)sc34)ccc12` [Example 6, 6-(2-[(R)-3-hydroxypyrrolidine-1-carbonyl]thieno[3,2-b]pyridin-7-yloxy)-2-methylbenzo[b]thiophene-3-carboxylic acid methylamide], in data set [1], the inhibition at 0.05 µM is 94% and the affinity, expressed as Ki, was 0.721 nM. In the data set “Mouse PK assay”, the “mouse Cmin, po” value is 20 ng/mL; the AUC came out at 586 ng·h/mL; the highest level (Cmax) was 355 ng/mL.
On the same counts, the results for `CNC(=O)c1c(C)oc2cc(Oc3ccnc4cc(C(=O)N5CC[C@@H](OC)C5)sc34)ccc12` [Example 12, 6-(2-[3-methoxypyrrolidine-1-carbonyl]thieno[3,2-b]pyridin-7-yloxy)-2-methylbenzofuran-3-carboxylic acid methylamide] are 100%, 0.314 nM, 270 ng/mL, 12000 ng·h/mL and 5420 ng/mL.
On to `CNC(=O)c1c(C)oc2cc(Oc3ccnc4cc(-c5nccn5C)sc34)ccc12` [Example 13], for which, in data set [1], the inhibition at 0.05 µM amounted to 97% and the affinity corresponds to a Ki of 0.322 nM. In addition, in “Mouse PK assay”, the “mouse Cmin, po” value came to 1700 ng/mL; the AUC amounted to 63000 ng·h/mL; the highest level (Cmax) was 24800 ng/mL.
On the same counts, the results for `CNC(=O)c1c(C)n(C)c2cc(Oc3ccnc4cc(-c5nccn5C)sc34)ccc12` [Example 17, 1,2-dimethyl-6-(2-[1-methyl-1H-imidazol-2-yl]thieno[3,2-b]pyridin-7-yloxy)-1H-indole-3-carboxylic acid methylamide] are 77%, 2.77 nM, 2334 ng/mL, 71600 ng·h/mL and 28800 ng/mL.
On the same counts, the results for `CNC(=O)c1c(C)n(C)c2cc(Oc3ccnc4cc(C(=O)N5CC[C@@H](OC)C5)sc34)ccc12` [Example 18, 1,2-dimethyl-6-(2-[3-methoxy-pyrrolidine-1-carbonyl]thieno[3,2-b]pyridin-7-yloxy)-1H-indole-3-carboxylic acid methylamide] are 78%, 2.37 nM, 342 ng/mL, 8720 ng·h/mL and 4120 ng/mL.
For `CNC(=O)c1c(C)n(C)c2cc(Oc3ccnc4cc(C(=O)N5CC[C@@H](O)C5)sc34)ccc12` [Example 19, 1,2-dimethyl-6-(2-[3-hydroxy-pyrrolidine-1-carbonyl]thieno[3,2-b]pyridin-7-yloxy)-1H-indole-3-carboxylic acid methylamide], in that order: 75%, 2.63 nM, 4 ng/mL, 120 ng·h/mL and 51 ng/mL.
As for `Cc1c(C(=O)NC2CC2)c2ccc(Oc3ccnc4cc(-c5nccn5C)sc34)cc2n1C` [Example 20, 1,2-Dimethyl-6-[2-(1-methyl-1H-imidazol-2-yl)-thieno[3,2-b]pyridin-7-yloxy]-1H-indole-3-carboxylic acid cyclopropylamide], in data set [1], the inhibition at 0.05 µM was found to be 99% and the Ki is 0.082 nM.
Turning to `CCCNC(=O)c1c(C)n(C)c2cc(Oc3ccnc4cc(-c5nccn5C)sc34)ccc12` [Example 61, 1,2-Dimethyl-6-[2-(1-methyl-1H-imidazol-2-yl)thieno[3,2-b]pyridin-7-yloxy]-1H-indole-3-carboxylic acid propylamide], the inhibition at 0.05 µM in data set [1] came out at 89%.
As for `CCCCNC(=O)c1c(C)n(C)c2cc(Oc3ccnc4cc(-c5nccs5)sc34)ccc12` [Example 62, 1,2-Dimethyl-6-(2-thiazol-2-yl-thieno[3,2-b]pyridin-7-yloxy)-1H-indole-3-carboxylic acid butylamide], in data set [1], the inhibition at 0.05 µM worked out at 91% and the affinity corresponds to a Ki of 0.57 nM.
